We go through three molecules from article PMC3581553, “New Approaches of PARP-1 Inhibitors in Human Lung Cancer Cells and Cancer Stem-Like Cells by Some Selected Anthraquinone-Derived Small Molecules” (PLoS ONE, 2013).

Read-outs that look alike come from different tables or passages of the source.

For experiment [1], the system named is Oct-4- and Nanog-overexpressed A549 clone (A3). Kind of experiment: MTT cytotoxicity assay, A3 cells. The experiment is classed as cell-based. To be noted: Homo sapiens, 48 h of drug exposure. As to the method:
(§1) Non-small cell lung cancer cells A549 and Oct-4- and Nanog-overexpressed A549 clone (clone #3; A3), presented the properties of cancer stem-like cells, as well as epithelial-mesenchymal transdifferentiation, according to our previous study. They were grown in the same conditions as RPMI 1640 media supplemented with 10% fetal bovine serum (FBS), 100 units/mL penicillin, […] streptomycin, 1 mM sodium pyruvate, 2 mM l-glutamine and 1% non-essential amino acid (NEAA) in a humidified atmosphere with 5% CO2 at 37°C. Normal fibroblast cells HEL299 from American Type Culture Collection (ATCC) were grown in MEM media supplemented with 10% FBS, 100 units/mL penicillin, […] streptomycin, 1 mM sodium pyruvate, 2 mM l-glutamine and 1% NEAA, in a humidified atmosphere with 5% CO2 at 37°C.
(§2) The tetrazolium reagent (MTT; 3-(4,5-dimethylthiazol-2-yl)-2,5-diphenyl-tetrazolium bromide, USB) was designed to yield a colored formazan upon metabolic reduction by viable cells, [61]. Approximately 5×10^4 cells were plated onto each well of a 24-well plate and incubated in 5% CO2 at 37°C for 24 hours. To assess the in vitro cytotoxicity, each compound was dissolved in DMSO and prepared immediately before the experiments and then was diluted into the complete medium before being added to cell cultures. Test compounds were then added to the culture medium in various designated concentrations. After 48 hours, an amount of 100 µl of MTT was added to each well, and the samples were incubated at 37°C for 2 h. 100 µl DMSO was added to each well. The absorbency at 560 nm and reference absorbency at 670 nm were measured using an ELISA reader.
On the technique in general: Formazan colour is commonly taken as a measure of viable cells.

A further experiment concerns A549 cells. Kind of experiment: MTT cytotoxicity assay, A549 cells. It is filed as cell-based. The settings on record: Homo sapiens, 48 h of drug exposure. As to the method: as §1, §2
The next experiment deals with HEL299 cells. Nature of the experiment: MTT cytotoxicity assay, HEL299 normal fibroblasts. The experiment is classed as cell-based. The settings on record: Homo sapiens, HEL 299, 48 h of drug exposure. As to the method:
as §1, §2

The next experiment has as its target T1, PARP-1 (Homo sapiens, UniProt P09874).
T1 construct: purchased
Kind of experiment: PARP inhibitory assay (histone-coated plate, colorimetric). It is filed as biochemical. On the procedure:
We used histone-coated 96-well plate treated with seven putative PARP-1 inhibitors or well-known PARP-1 inhibitors (3-AB), and then added PARP enzyme to each well. PARP enzyme catalyzes the NAD-dependent addition of poly (ADP-ribose) to histone, and diluted Strp-HRP could bind to PARylation histone. TACS-Sapphire™ yielded blue under the HRP existence. In order to systematically evaluate the potential anticancer activity, the compounds were tested for their cytotoxicity in vitro against 60 human cancer lines in the NCI anticancer drug screen as well as for dose response curves and telomerase activity. Cell growth was analyzed by the MTT assay, with differences between dose-response curves analyzed non-parametrically. Telomerase activity was detected by a modified version of the PCR-based assay and TRAP assay. […] However, PARP inhibitory effects had no difference at 1 and 10 µM. As described above, NSC746364, NSC746366 and NSC749232 show dose-dependency only at low concentrations. […] NSC747854 had dose-dependent PARP inhibitory manners at three different concentrations, and reached the maximum inhibitory effect of 86% at 10 µM (Table 4). […] In this investigation, we continued to focus our attention on the role of NSC747854 and to understand the basis of pharmacophore selectivity. Of particular note is the significant difference with these selected compounds, compared with that of 3-AB and PJ-34. […] An electron-rich aromatic ring system, including a carboxamide group, should have at least a hydrogen atom on the amide nitrogen. The amidinium moiety is known to contribute to the stabilization of DNA recognition element through electrostatic and hydrogen bonding interactions. Therefore, hydrogen bonds are frequently used as recognition elements due to their directionality and also due to being attractive factors to the biological activity (Figure 1). Many classes of drugs have substantial curvature, high DNA affinity, binding to the minor-groove or major-groove, interference with DNA-associated enzymes (e.g. telomerase), and Poly (ADP-ribose) polymerase, PARP. […] This approach greatly expands the utility of the substituents and related pharmacophore for the construction of drugs in general. Therefore, it is desirable to design PARP inhibitors in accordance with various anticancer parameters. It was first reported that anthraquinone analogues are potent human PARP inhibitors.
Strip wells were removed from the wrapper and 50 µl of 1X PARP Buffer was added to each well to rehydrate the histones. They were incubated at room temperature for 30 minutes. The 1X PARP buffer was removed from the wells by tapping the strip wells on paper towels. The serial dilutions of inhibitor of interest were added to appropriate wells. The diluted PARP enzyme (0.5 unit/well) was then added to the wells containing inhibitor. They were incubated for 10 minutes at room temperature. The PARP Enzyme-High Specific Activity (PARP-HAS) standard was serially diluted in cold micro-tubes with 1X PARP buffer such that the total activity was 1 unit/25 µl, 0.5 units/25 µl, 0.25 units/25 µl, 0.1 units/25 µl, 0.05 units/25 µl, 0.025 units/25 µl, and 0.01 units/25 µl, respectively. The 25 µl of each standard was added to triplicate wells. The 25 µl of 1X PARP cocktail were distributed into each well by using a multichannel pipettor. The final reaction volume is 50 µl. They were incubated along with the strip wells at room temperature for 60 minutes. The strip wells were washed 2 times with 1X PBS +0.1% Triton X-100 (200 µl/well) followed by 2 washes with 1X PBS. All the liquid was removed following each wash by tapping strip wells onto paper towels. The 50 µl diluted Strep-HRP were added per well. They were incubated at room temperature for 60 minutes. The strip wells were washed 2 times with 1X PBS +0.1% Triton X-100 (200 µl/well) followed by 2 washes with 1X PBS. All the liquid was removed following each wash by tapping strip wells onto paper towels. […]

A further experiment relates to A549/ATCC. Kind of experiment: NCI-60 drug screen (SRB), NSCLC line A549/ATCC. The experiment is classed as cell-based, human. As to the method: (§3) As a primary screening, seven selected compounds were submitted to the National Cancer Institute (NCI) cell lines screen for evaluation of their anticancer activity. From the data analysis, it follows that approximately 95% of the actives from the 60 cell lines screen can be identified. The detailed methods used for the 60 cell lines panel have been described elsewhere [54]–[59]. Briefly, cellular protein levels were determined after 48 hours of drug exposure by SRB colorimetry. Through the use of a time zero cell control, the cell growth can be determined for each cell line thus allowing calculations of GI50, TGI, and LC50. Comparison to plates not exposed to drug permits determination of concentration and times of exposure conferring GI50, TGI, and LC50. […] By these criteria, seven compounds reported from our compounds bank were all active and passed on for evaluation in the full panel of 60 human tumor cell lines. The panel is organized into nine subpanels representing diverse histology: leukemia, melanoma, and cancers of the lung, colon, kidney, ovary, breast, prostate, and central nervous system.

The subject of another experiment is EKVX. Kind of experiment: NCI-60 drug screen (SRB), NSCLC line EKVX. The experiment is classed as cell-based, human. On the procedure:
as §3

The next experiment relates to HOP-62. Kind of experiment: NCI-60 drug screen (SRB), NSCLC line HOP-62. The experiment is classed as cell-based, human. On the procedure:
as §3

A further experiment relates to NCI-H226. Nature of the experiment: NCI-60 drug screen (SRB), NSCLC line NCI-H226. The experiment is classed as cell-based, human. On the procedure: as §3
The test system of the next experiment is NCI-H23. Kind of experiment: NCI-60 drug screen (SRB), NSCLC line NCI-H23. The experiment is classed as cell-based, human. On the procedure:
as §3

In another experiment the test system is NCI-H322M. Kind of experiment: NCI-60 drug screen (SRB), NSCLC line NCI-H322M. The experiment is classed as cell-based, human. As to the method:
as §3

A further experiment deals with NCI-H460. Nature of the experiment: NCI-60 drug screen (SRB), NSCLC line NCI-H460. It is filed as cell-based, human. As to the method: as §3
The next experiment has as its system NCI-H522. Kind of experiment: NCI-60 drug screen (SRB), NSCLC line NCI-H522. It is filed as cell-based, human. As to the method: as §3
[2] abbreviates: Homo sapiens, 48 hours drug exposure, SRB.
Where [3] appears, read: Homo sapiens, 48 hours drug exposure, SRB, read-out: GI50.
[4] abbreviates: Homo sapiens, NCI in vitro 60-cell lines Drug Screen, read-out: -Log GI50 (converted).
Where [5] appears, read: Homo sapiens, 48 hours drug exposure, SRB, read-out: LC50 (the source's name).

T1 sequence (P09874 whole entry): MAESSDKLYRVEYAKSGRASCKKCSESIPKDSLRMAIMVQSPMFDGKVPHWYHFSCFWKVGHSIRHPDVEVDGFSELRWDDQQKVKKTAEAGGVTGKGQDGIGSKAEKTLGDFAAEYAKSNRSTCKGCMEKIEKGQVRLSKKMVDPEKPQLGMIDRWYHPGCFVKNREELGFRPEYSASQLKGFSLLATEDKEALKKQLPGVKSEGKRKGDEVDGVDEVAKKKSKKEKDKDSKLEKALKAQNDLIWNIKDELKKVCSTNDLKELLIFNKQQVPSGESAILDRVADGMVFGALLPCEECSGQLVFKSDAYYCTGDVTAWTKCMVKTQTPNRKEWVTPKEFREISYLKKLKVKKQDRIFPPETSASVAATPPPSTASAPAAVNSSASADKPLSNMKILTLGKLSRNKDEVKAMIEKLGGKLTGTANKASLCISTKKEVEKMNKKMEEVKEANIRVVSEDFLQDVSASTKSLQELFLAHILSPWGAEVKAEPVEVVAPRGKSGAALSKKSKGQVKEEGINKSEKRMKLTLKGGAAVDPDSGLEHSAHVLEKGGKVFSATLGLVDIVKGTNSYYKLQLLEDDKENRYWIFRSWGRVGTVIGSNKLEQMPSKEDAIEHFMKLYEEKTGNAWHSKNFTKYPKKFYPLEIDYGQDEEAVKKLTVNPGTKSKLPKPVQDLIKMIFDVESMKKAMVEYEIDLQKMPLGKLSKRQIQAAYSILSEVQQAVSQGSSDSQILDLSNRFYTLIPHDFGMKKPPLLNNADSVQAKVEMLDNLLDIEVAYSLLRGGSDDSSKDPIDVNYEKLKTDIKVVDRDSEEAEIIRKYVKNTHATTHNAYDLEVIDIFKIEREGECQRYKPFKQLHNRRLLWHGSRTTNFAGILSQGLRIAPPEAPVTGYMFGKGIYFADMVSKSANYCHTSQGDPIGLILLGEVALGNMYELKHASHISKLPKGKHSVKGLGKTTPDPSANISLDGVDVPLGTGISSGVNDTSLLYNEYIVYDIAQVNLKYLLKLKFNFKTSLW

On to `CN(C)CC(=O)Nc1ccc2[nH]c(=O)c3ccccc3c2c1` [PJ-34, reference compound], for which the IC50 (in general, the concentration needed to halve the response being measured) in experiment [1] came to 9.44 µM; in the experiment with A549 cells, 31.7 µM; in the experiment on HEL299 cells, 14.7 µM.

Take `NC(=O)c1cccc(N)c1` [3-AB, 3-Aminobenzamide, reference compound]: it took 10.8 µM to reach half-maximal inhibition in [1] (IC50). Besides, half-maximal inhibition in the experiment on A549 cells (IC50) was put at 13.1 µM. In the experiment on HEL299 cells, this molecule showed an IC50 of 5.98 µM. Moreover, at PARP-1, at 0.1 µM the inhibition was 4%; the inhibition (in general, the drop in the measured response relative to a control, in per cent) at 1 µM came out at 10%; the inhibition at 10 µM turned out to be 18%.

With `O=C1c2ccccc2C(=O)c2c1ccc1nc(SCCN3CCCC3)[nH]c21` [NSC747515], the TGI (in general, the concentration giving total growth inhibition) was found to be 15.0 µM with A549/ATCC (48 hours drug exposure, SRB); 26.5 µM with EKVX (48 hours drug exposure, SRB); 33.2 µM with HOP-62 (48 hours drug exposure, SRB); 36.6 µM in the experiment with NCI-H226 (48 hours drug exposure, SRB); 25.7 µM in the experiment on NCI-H23 (48 hours drug exposure, SRB); 21.4 µM with NCI-H322M (48 hours drug exposure, SRB). The TGI is reported as 4.77 µM in the experiment on NCI-H460 (48 hours drug exposure, SRB) and 32.5 µM in the experiment on NCI-H522 (48 hours drug exposure, SRB). The results for the LC50 (concentration killing 50% of cells) with A549/ATCC (setting [2]) and with NCI-H460 (setting [2]) were 41.8 µM and 29.3 µM, respectively. Further, the GI50 (usually the concentration that inhibits growth by half) with A549/ATCC (setting [3]) was 3.8 µM; in the experiment on A549/ATCC (setting [4]) it was 3.8 µM; in the experiment on EKVX (setting [3]), 11.2 µM; with EKVX (setting [4]), 11.2 µM; in the experiment on HOP-62 (setting [3]) it was 18 µM; with HOP-62 (setting [4]), 18.2 µM. Also, the GI50 in the experiment with NCI-H226 (setting [3]) is 19.3 µM; in the experiment on NCI-H226 (setting [4]), 19.5 µM; in the experiment on NCI-H23 (setting [3]) it was 11.6 µM; in the experiment on NCI-H23 (setting [4]), 11.5 µM; with NCI-H322M (setting [3]), 8.21 µM; with NCI-H322M (setting [4]), 8.13 µM. Besides, the GI50 in the experiment with NCI-H460 (setting [3]) is 1.68 µM; in the experiment on NCI-H460 (setting [4]), 1.7 µM; with NCI-H522 (setting [3]) it was 15.9 µM; in the experiment on NCI-H522 (setting [4]) it was 15.8 µM. In addition, the LC50 (as a rule, the concentration lethal to half of the exposed cells or organisms) in the experiment with EKVX (setting [2]) turned out to be 62.4 µM; in the experiment on NCI-H322M (setting [2]), 47.3 µM. Also, the CC50 with HOP-62 (setting [5]) is 61.2 µM; in the experiment on NCI-H226 (setting [5]), 69.7 µM; with NCI-H23 (setting [5]), 56.9 µM; with NCI-H522 (setting [5]) it was 66.2 µM. Moreover, the IC50 was determined as 7.05 µM in [1], 11.8 µM in the experiment with A549 cells and 25.9 µM in the experiment with HEL299 cells. Further, the inhibition at 0.1 µM against PARP-1 was 20%. The inhibition at 1 µM at PARP-1 stood at 22%. The molecule also yielded an inhibition at 10 µM at PARP-1 of 24%.
